The text below walks through data of ChEMBL document CHEMBL5726751, “Substituted spirocyclic inhibitors of autotaxin” (2019).

Some results are limits rather than exact numbers.

For orientation: IC50 means the concentration needed to halve the response being measured.

This experiment has as its target Autotaxin (Homo sapiens, UniProt Q13822). In words: The following assays and their respective methods are carried out with the compounds according to the present invention. […] Those skilled in the art will appreciate that a variety of assay formats may be used to determine the activity of the compounds of this invention.Autotaxin LPC Cascade Assay:Assay Buffer:100 mM Tris-HCl, pH=9500 mM NaCl5 mM MgCl25 mM CaCl20.05% Triton X 100Reagents:Enzyme Source Stock conc Working conc. Final conc. Autotaxin X-Chem 4.6 μM 20 nM 5 nM LPC Sigma L5254 8 mM in assay buffer 400 μM 100 μM Choline Oxidase Sigma C5896 50 U/mL in water 0.8 U/mL 0.1 U/mL HRP Sigma P8375 1000 U/mL in water 8 U/mL 1 U/mL Ampliflu Red Sigma 90101 100 mM in DMSO 400 μM 50 μM. The format is […].
As for `CC(C)[C@@H](NC(=O)c1cc(C(F)(F)F)ccc1F)C(=O)N1CCC2(CC1)C(=O)N(C)C(=O)N2c1ccc(OCCN(C)C)cc1`, the IC50 is more than 1000 nM. As for `CC(C)[C@@H](NC(=O)c1ccc(C#N)c(Cl)c1)C(=O)N1CCC2(CC1)C(=O)N(C)CN2c1ccccc1`, the figure is more than 1000 nM. The molecule `Cc1cccc(C(=O)N[C@@H](C(=O)N2CCC3(CC2)C(=O)N(C)CN3c2cccc(C#N)c2)C(C)C)c1F` gave an IC50 of more than 1000 nM.

Take `CN1C(=O)N(c2ccc3[nH]ncc3c2)C2(CCN(C(=O)C3(NC(=O)c4cc(C(F)(F)F)ccc4F)COC3)CC2)C1=O`: the IC50 was more than 1000 nM. For `Cc1cccc(C(=O)N(C)[C@@H](C(=O)N2CCC3(CC2)C(=O)N(C)CN3c2ccccc2)C(C)C)c1`, the IC50 is more than 1000 nM.
